# Experiments:
# [1] = species: Rattus norvegicus; test: Selectivity ratio of Ki for rat brain sigma1 receptor to Ki for rat brain sigma2 receptor
# [2] = target: 5-hydroxytryptamine receptor 2A (Rattus norvegicus, UniProt P14842); test: Displacement of [3H]ketanserin from 5-HT2 receptor in rat brain after 120 mins by liquid scintillation counting analysis; format: tissue-based
# [3] = Displacement of [3H]nisoxetine from norepinephrine transporter in rat cerebral cortex after 120 mins by liquid scintillation counting analysis; format: tissue-based
# [4] = target: Sigma non-opioid intracellular receptor 1 (Rattus norvegicus, UniProt Q9R0C9); test: Displacement of [3H](+)-pentazocine from sigma1 receptor in rat brain after 120 mins by liquid scintillation counting analysis; format: tissue-based
# Sequence of Sigma non-opioid intracellular receptor 1 (Q9R0C9 whole entry): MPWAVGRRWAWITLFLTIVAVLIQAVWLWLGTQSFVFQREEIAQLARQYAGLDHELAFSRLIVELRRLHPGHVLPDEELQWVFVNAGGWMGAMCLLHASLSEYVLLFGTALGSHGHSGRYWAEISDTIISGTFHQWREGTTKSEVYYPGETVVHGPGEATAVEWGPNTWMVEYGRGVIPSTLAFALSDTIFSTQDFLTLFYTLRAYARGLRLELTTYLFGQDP
# [5] = species: Rattus norvegicus; test: Selectivity ratio of Ki for rat brain sigma1 receptor to Ki for rat striatum dopamine transporter; format: tissue-based
# [6] = Binding affinity to rat opioid receptor after 120 mins by radioligand displacement assay
# [7] = target: Sodium-dependent dopamine transporter (Rattus norvegicus, UniProt P23977); test: Displacement of [3H]WIN 35428 from dopamine transporter in rat striatum after 120 mins by liquid scintillation counting analysis
# Sequence of Sodium-dependent dopamine transporter (P23977 whole entry): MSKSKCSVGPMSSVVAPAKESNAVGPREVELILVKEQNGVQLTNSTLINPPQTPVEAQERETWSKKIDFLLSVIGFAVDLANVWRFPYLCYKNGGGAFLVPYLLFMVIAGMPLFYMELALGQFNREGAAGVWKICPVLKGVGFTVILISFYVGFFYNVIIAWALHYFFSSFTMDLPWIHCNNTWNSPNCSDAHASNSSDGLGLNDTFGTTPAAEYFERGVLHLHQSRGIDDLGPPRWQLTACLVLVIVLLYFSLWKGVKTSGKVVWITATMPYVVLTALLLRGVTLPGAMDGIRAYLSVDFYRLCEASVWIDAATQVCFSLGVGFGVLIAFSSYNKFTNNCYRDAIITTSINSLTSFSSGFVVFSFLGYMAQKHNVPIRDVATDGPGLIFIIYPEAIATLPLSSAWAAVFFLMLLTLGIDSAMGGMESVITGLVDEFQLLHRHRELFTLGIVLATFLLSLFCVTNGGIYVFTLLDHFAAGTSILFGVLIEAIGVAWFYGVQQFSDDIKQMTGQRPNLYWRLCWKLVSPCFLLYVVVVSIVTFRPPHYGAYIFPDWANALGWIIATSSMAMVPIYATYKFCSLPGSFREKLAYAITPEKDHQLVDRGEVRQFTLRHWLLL
# [8] = target: Sodium-dependent serotonin transporter (Rattus norvegicus, UniProt P31652); test: Displacement of [3H]paroxetine from serotonin transporter in rat brainstem after 120 mins by liquid scintillation counting analysis; format: tissue-based
# Sequence of Sodium-dependent serotonin transporter (P31652 whole entry): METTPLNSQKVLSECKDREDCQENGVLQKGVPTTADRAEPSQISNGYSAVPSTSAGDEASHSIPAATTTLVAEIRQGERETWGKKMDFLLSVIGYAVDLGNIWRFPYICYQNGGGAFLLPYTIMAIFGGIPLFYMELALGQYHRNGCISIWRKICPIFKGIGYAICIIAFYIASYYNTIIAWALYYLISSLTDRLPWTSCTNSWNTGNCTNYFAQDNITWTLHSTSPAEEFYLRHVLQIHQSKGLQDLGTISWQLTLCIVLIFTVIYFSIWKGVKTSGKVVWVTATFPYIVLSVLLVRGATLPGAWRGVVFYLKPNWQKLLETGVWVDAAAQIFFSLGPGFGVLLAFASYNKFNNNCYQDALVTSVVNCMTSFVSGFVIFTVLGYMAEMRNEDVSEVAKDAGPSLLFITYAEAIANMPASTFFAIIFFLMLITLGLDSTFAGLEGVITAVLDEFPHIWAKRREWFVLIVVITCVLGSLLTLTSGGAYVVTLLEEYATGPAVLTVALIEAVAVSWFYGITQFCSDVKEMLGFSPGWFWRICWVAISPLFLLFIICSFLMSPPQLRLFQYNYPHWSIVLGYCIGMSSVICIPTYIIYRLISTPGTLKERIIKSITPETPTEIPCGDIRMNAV
# [9] = target: D(2) dopamine receptor (Rattus norvegicus, UniProt P61169); test: Displacement of [3H](-)-sulpiride from dopamine D2 receptor in rat brain after 120 mins by liquid scintillation counting analysis; format: tissue-based
# Sequence of D(2) dopamine receptor (P61169 whole entry): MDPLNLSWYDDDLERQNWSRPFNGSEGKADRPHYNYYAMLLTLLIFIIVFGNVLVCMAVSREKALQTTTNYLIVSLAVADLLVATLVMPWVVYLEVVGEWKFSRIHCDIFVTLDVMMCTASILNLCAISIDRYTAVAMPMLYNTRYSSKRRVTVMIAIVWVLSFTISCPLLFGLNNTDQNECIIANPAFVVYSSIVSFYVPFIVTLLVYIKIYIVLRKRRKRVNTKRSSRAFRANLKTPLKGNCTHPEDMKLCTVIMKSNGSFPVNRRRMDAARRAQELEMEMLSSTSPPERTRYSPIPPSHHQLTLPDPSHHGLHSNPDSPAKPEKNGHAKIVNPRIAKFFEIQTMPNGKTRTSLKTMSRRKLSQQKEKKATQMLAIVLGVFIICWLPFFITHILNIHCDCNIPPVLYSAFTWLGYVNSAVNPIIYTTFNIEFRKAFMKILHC
# [10] = Displacement of [3H]di-o-tolylguanidine from sigma2 receptor in rat brain after 120 mins by liquid scintillation counting analysis; format: tissue-based
# [11] = Displacement of [3H]TCP from N-methyl D-aspartate receptor phencyclidine binding site in rat brain after 120 mins by liquid scintillation counting analysis; format: tissue-based
# Sequence of 5-hydroxytryptamine receptor 2A (P14842 whole entry): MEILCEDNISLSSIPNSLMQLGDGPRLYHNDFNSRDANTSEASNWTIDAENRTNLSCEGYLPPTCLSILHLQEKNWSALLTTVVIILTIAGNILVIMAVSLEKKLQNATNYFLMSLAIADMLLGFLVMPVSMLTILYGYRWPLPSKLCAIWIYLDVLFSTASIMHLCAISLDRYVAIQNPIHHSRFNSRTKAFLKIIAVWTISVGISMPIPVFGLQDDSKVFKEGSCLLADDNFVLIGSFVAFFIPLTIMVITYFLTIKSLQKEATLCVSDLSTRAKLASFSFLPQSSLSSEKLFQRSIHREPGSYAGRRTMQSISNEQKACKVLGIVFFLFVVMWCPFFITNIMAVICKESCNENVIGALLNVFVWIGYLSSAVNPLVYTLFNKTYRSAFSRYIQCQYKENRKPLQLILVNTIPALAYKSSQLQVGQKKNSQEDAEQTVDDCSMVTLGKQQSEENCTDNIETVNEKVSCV
Ratio Ki [1],Ki [2],Ki [3],Ki [4],Ratio Ki [5],Ki [6],Ki [7],Ki [8],Ki [9],Ki [10],Ki [11],SMILES
0.072,952 nM,> 10000 nM,0.56 nM,0.0012,4600 nM,482 nM,409 nM,77 nM,7.79 nM,> 10000 nM,Clc1ccccc1N1CCN(CCCc2ccccc2)CC1
0.39,498 nM,> 10000 nM,4.93 nM,,> 10000 nM,> 10000 nM,488 nM,128 nM,12.6 nM,> 10000 nM,Clc1cccc(N2CCN(CCCc3ccccc3)CC2)c1
0.011,391 nM,> 10000 nM,0.12 nM,4.5e-05,> 10000 nM,2650 nM,1100 nM,660 nM,10.9 nM,> 10000 nM,Clc1ccc(N2CCN(CCCc3ccccc3)CC2)cc1
0.079,53 nM,1110 nM,6.47 nM,162,> 10000 nM,0.04 nM,802 nM,327 nM,82.3 nM,> 10000 nM,Clc1cccc(N2CCN(CCc3ccccc3)CC2)c1
16.7,1240 nM,> 10000 nM,,0.009,> 10000 nM,9150 nM,> 10000 nM,940 nM,4.9 nM,> 10000 nM,c1ccc(CCCN2CCN(c3ccccn3)CC2)cc1

SMILES,Ratio Ki [1],Ki [2],Ki [3],Ki [4],Ratio Ki [5],Ki [6],Ki [7],Ki [8],Ki [9],Ki [10],Ki [11]
Clc1ccccc1N1CCN(CCc2ccccc2)CC1,0.003,484 nM,790 nM,0.15 nM,1.15,4830 nM,0.13 nM,> 10000 nM,67 nM,56.3 nM,> 10000 nM
Clc1ccc(N2CCN(CCc3ccccc3)CC2)cc1,0.056,518 nM,> 10000 nM,1.85 nM,0.31,> 10000 nM,6 nM,372 nM,834 nM,33.3 nM,> 10000 nM

# — ChEMBL document CHEMBL3091341, “Chlorophenylpiperazine analogues as high affinity dopamine transporter ligands” (Bioorg Med Chem Lett, 2013)
